Experiment [1] addresses T1, PI3Kγ (Homo sapiens, UniProt P48736).
T1 construct: host or cells: THP-1
Nature of the experiment: PI3Kγ cellular assay in THP-1 cells (AKT pS473 AlphaLISA). The class given is cell-based. The settings on record: Table 1, rhMCP-1 stimulated AKT pS473, read-out: cellular potency (PI3Kγ IC50). The gist of the method: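 Endogenous AKT S473 phosphorylation, detected by AlphaLISA in lysates, serves as the PI3Kγ activity read-out in stimulated, serum-starved THP-1 cells (1.8×10^5/well).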

Experiment [2] concerns the target T2, PI3Kγ (p120γ) (Homo sapiens, UniProt P48736).
T2 construct: purchased Promega V1761
Nature of the experiment: Inhibition of PI3K kinase activity (ADP Glo), PI3Kγ. The conditions noted are these: Table 1, p120γ, read-out: biochemical potency (PI3Kγ IC50). The gist of the method:
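IC50 values come from a 4-parameter nonlinear fit of ADP-Glo luminescence, which measures ADP produced as PIP2 is phosphorylated to PIP3. The p120γ enzyme (2× stock 8 nM) sat with compound 1 h at rt before substrate (2× stocks: 50 μM ATP, 0.1 mg/ml PIP2) was added. Phosphorylation then proceeded 60 min at rt.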
(ADP-Glo first removes unused ATP, then detects ADP through luciferase.)

T2 sequence (P48736 whole entry): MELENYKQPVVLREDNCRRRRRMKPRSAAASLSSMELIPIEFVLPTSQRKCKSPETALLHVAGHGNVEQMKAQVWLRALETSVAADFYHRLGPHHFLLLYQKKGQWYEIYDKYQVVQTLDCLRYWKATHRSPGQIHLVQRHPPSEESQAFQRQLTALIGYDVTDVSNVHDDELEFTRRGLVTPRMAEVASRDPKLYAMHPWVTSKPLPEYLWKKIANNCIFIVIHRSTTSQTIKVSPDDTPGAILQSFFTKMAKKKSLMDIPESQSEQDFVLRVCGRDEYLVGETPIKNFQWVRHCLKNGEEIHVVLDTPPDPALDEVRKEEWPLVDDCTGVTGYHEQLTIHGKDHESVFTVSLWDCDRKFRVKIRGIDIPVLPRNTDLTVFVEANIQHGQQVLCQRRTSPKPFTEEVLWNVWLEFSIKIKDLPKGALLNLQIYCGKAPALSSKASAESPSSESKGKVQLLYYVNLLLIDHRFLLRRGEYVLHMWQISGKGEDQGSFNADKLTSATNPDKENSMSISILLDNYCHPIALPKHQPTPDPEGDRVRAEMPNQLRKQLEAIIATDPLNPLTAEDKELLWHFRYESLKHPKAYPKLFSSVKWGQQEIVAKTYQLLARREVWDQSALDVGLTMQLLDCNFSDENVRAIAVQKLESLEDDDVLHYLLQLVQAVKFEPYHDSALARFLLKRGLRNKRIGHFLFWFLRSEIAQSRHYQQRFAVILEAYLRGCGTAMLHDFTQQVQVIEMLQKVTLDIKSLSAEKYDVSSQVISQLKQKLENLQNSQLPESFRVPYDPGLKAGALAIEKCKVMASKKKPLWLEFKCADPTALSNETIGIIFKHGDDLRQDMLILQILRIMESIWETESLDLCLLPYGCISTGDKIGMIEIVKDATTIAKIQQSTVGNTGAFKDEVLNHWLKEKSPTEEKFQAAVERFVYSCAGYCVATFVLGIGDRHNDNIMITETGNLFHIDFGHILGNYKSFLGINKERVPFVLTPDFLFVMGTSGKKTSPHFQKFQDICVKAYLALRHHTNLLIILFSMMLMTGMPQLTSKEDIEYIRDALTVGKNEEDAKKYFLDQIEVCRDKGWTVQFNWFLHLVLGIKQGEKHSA
T1 sequence (P48736 whole entry): as above

For orientation: IC50 means the concentration that gives 50% inhibition. With `C[C@H](N1Cc2cc(-c3ccn4nc(N)c(C(=O)N[C@@H](CO)C5CC5)c4n3)cc(NS(C)(=O)=O)c2C1=O)C(F)(F)F` [Example 120, 2-Amino-N-((R)-1-cyclopropyl-2-hydroxyethyl)-5-(7-(methylsulfonamido)-1-oxo-2-((S)-1,1,1-trifluoropropan-2-yl)isoindolin-5-yl)pyrazolo[1,5-a]pyrimidine-3-carboxamide], the 50% inhibitory concentration (IC50) in experiment [1] and in experiment [2] was less than 100 nM throughout.
With `C[C@H](N1Cc2cc(-c3ccn4nc(N)c(C(=O)N[C@H]5C[C@H](O)C5)c4n3)cc(NS(C)(=O)=O)c2C1=O)C(F)(F)F` [Example 121, 2-Amino-5-{7-methanesulfonamido-1-oxo-2-[(2S)-1,1,1-trifluoropropan-2-yl]-2,3-dihydro-1H-isoindol-5-yl}-N-[trans-3-hydroxycyclobutyl]pyrazolo[1,5-a]pyrimidine-3-carboxamide], the concentration for half-maximal inhibition (IC50) in experiment [1] and in experiment [2] was less than 100 nM throughout.
Regarding `C[C@H](N1Cc2cc(-c3ccn4nc(N)c(C(=O)N[C@H]5CC[C@@](C)(O)CC5)c4n3)cc(NS(C)(=O)=O)c2C1=O)C(F)(F)F` [Example 122, 2-Amino-5-{7-methanesulfonamido-1-oxo-2-[(2S)-1,1,1-trifluoropropan-2-yl]-2,3-dihydro-1H-isoindol-5-yl}-N-[cis-4-hydroxy-4-methylcyclohexyl]pyrazolo[1,5-a]pyrimidine-3-carboxamide], the concentration for half-maximal inhibition (IC50) in experiment [1] and in experiment [2] was less than 100 nM in each case.
Turning to `CC[C@H](N1Cc2cc(-c3ccn4nc(N)c(C(=O)NC5COC5)c4n3)cc(NS(C)(=O)=O)c2C1=O)C(F)(F)F` [Example 123, 2-Amino-5-{7-methanesulfonamido-1-oxo-2-[(2S)-1,1,1-trifluorobutan-2-yl]-2,3-dihydro-1H-isoindol-5-yl}-N-(oxetan-3-yl)pyrazolo[1,5-a]pyrimidine-3-carboxamide], the IC50 in experiment [1] and in experiment [2] was less than 100 nM in each case.
For `CC[C@H](N1Cc2cc(-c3ccn4nc(N)c(C(=O)NC5CC5)c4n3)cc(NS(C)(=O)=O)c2C1=O)C(F)(F)F` [Example 124, 2-Amino-N-cyclopropyl-5-{7-methanesulfonamido-1-oxo-2-[(2S)-1,1,1-trifluorobutan-2-yl]-2,3-dihydro-1H-isoindol-5-yl}pyrazolo[1,5-a]pyrimidine-3-carboxamide], the IC50 in experiment [1] and in experiment [2] was less than 100 nM in each case.
For the compound `CC[C@H](N1Cc2cc(-c3ccn4nc(N)c(C(=O)NC5(C)COC5)c4n3)cc(NS(C)(=O)=O)c2C1=O)C(F)(F)F` [Example 125, 2-Amino-5-{7-methanesulfonamido-1-oxo-2-[(2S)-1,1,1-trifluorobutan-2-yl]-2,3-dihydro-1H-isoindol-5-yl}-N-(3-methyloxetan-3-yl)pyrazolo[1,5-a]pyrimidine-3-carboxamide], the concentration for half-maximal inhibition (IC50) in experiment [1] and in experiment [2] was less than 100 nM throughout.
Regarding `CC[C@H](N1Cc2cc(-c3ccn4nc(N)c(C(=O)N[C@H]5C[C@H](C(C)(C)O)C5)c4n3)cc(NS(C)(=O)=O)c2C1=O)C(F)(F)F` [Example 126, 2-Amino-5-{7-methanesulfonamido-1-oxo-2-[(2S)-1,1,1-trifluorobutan-2-yl]-2,3-dihydro-1H-isoindol-5-yl}-N-[trans-3-(2-hydroxypropan-2-yl)cyclobutyl]pyrazolo[1,5-a]pyrimidine-3-carboxamide], the concentration for half-maximal inhibition (IC50) in experiment [1] and in experiment [2] was less than 100 nM in each case.
Take `CC[C@H](N1Cc2cc(-c3ccn4nc(N)c(C(=O)N[C@H]5CC[C@](C)(O)CC5)c4n3)cc(NS(C)(=O)=O)c2C1=O)C(F)(F)F` [Example 127, 2-Amino-5-{7-methanesulfonamido-1-oxo-2-[(2S)-1,1,1-trifluorobutan-2-yl]-2,3-dihydro-1H-isoindol-5-yl}-N-[trans-4-hydroxy-4-methylcyclohexyl]pyrazolo[1,5-a]pyrimidine-3-carboxamide]: the IC50 in experiment [1] and in experiment [2] was less than 100 nM in each case.
For `CS(=O)(=O)Nc1cc(-c2ccn3nc(N)c(C(=O)NC4CC4)c3n2)cc2c1C(=O)N([C@@H](C1CC1)C(F)(F)F)C2` [Example 128, 2-Amino-N-cyclopropyl-5-{2-[(1S)-1-cyclopropyl-2,2,2-trifluoroethyl]-7-methanesulfonamido-1-oxo-2,3-dihydro-1H-isoindol-5-yl}pyrazolo[1,5-a]pyrimidine-3-carboxamide], the IC50 in experiment [1] and in experiment [2] was less than 100 nM throughout.
With `CS(=O)(=O)Nc1cc(-c2ccn3nc(N)c(C(=O)NC4CC4)c3n2)cc2c1C(=O)N([C@H](C1CC1)C(F)(F)F)C2` [Example 129, 2-Amino-N-cyclopropyl-5-{2-[(1R)-1-cyclopropyl-2,2,2-trifluoroethyl]-7-methanesulfonamido-1-oxo-2,3-dihydro-1H-isoindol-5-yl}pyrazolo[1,5-a]pyrimidine-3-carboxamide], the IC50 in experiment [1] and in experiment [2] was less than 100 nM throughout.
For the compound `C[C@@H](C1CC1)N1Cc2cc(-c3ccn4nc(N)c(C(=O)Nc5cnn(C)c5)c4n3)cc(S(C)(=O)=O)c2C1=O` [Example 130, 2-Amino-5-{2-[(1S)-1-cyclopropylethyl]-7-methanesulfonyl-1-oxo-2,3-dihydro-1H-isoindol-5-yl}-N-(1-methyl-1H-pyrazol-4-yl)pyrazolo[1,5-a]pyrimidine-3-carboxamide], the IC50 in experiment [1] and in experiment [2] was less than 100 nM each time.
Regarding `C[C@@H](C1CC1)N1Cc2cc(-c3ccn4nc(N)c(C(=O)N[C@H]5CC[C@@](C)(O)CC5)c4n3)cc(S(C)(=O)=O)c2C1=O` [Example 131, 2-Amino-5-{2-[(1S)-1-cyclopropylethyl]-7-methanesulfonyl-1-oxo-2,3-dihydro-1H-isoindol-5-yl}-N-[cis-4-hydroxy-4-methylcyclohexyl]pyrazolo[1,5-a]pyrimidine-3-carboxamide], the IC50 in experiment [1] and in experiment [2] was less than 100 nM in each case.
With `C[C@@H](C1CC1)N1Cc2cc(-c3ccn4nc(N)c(C(=O)NC5CC5)c4n3)cc(S(C)(=O)=O)c2C1=O` [Example 132, 2-Amino-N-cyclopropyl-5-{2-[(1S)-1-cyclopropylethyl]-7-methanesulfonyl-1-oxo-2,3-dihydro-1H-isoindol-5-yl}pyrazolo[1,5-a]pyrimidine-3-carboxamide], the IC50 in experiment [1] and in experiment [2] was less than 100 nM throughout.
For `CCS(=O)(=O)c1cc(-c2ccn3nc(N)c(C(=O)NC4CC4)c3n2)cc2c1C(=O)N([C@@H](C)C1CC1)C2` [Example 133, 2-Amino-N-cyclopropyl-5-{2-[(1S)-1-cyclopropylethyl]-7-(ethanesulfonyl)-1-oxo-2,3-dihydro-1H-isoindol-5-yl}pyrazolo[1,5-a]pyrimidine-3-carboxamide], the IC50 in experiment [1] and in experiment [2] was less than 100 nM in each case.
For the compound `C[C@@H](C1CC1)N1Cc2cc(-c3ccn4nc(N)c(C(=O)NC5CC5)c4n3)cc(S(=O)(=O)CC3CC3)c2C1=O` [Example 135, 2-Amino-N-cyclopropyl-5-{2-[(1S)-1-cyclopropylethyl]-7-cyclopropylmethanesulfonyl-1-oxo-2,3-dihydro-1H-isoindol-5-yl}pyrazolo[1,5-a]pyrimidine-3-carboxamide], the IC50 in experiment [1] and in experiment [2] was less than 100 nM throughout.
As for `C[C@@H](C1CC1)N1Cc2cc(-c3ccn4nc(N)c(C(=O)NC5CC5)c4n3)cc(S(=O)(=O)C3CCC3)c2C1=O` [Example 136, 2-Amino-5-[7-(cyclobutanesulfonyl)-2-[(1S)-1-cyclopropylethyl]-1-oxo-2,3-dihydro-1H-isoindol-5-yl]-N-cyclopropylpyrazolo[1,5-a]pyrimidine-3-carboxamide], the IC50 in experiment [1] and in experiment [2] was less than 100 nM each time.
Take `C[C@@H](C1CC1)N1Cc2cc(-c3ccn4nc(N)c(C(=O)NC5CC5)c4n3)cc(S(=O)(=O)C3CCCC3)c2C1=O` [Example 137, 2-Amino-5-[7-(cyclopentanesulfonyl)-2-[(1S)-1-cyclopropylethyl]-1-oxo-2,3-dihydro-1H-isoindol-5-yl]-N-cyclopropylpyrazolo[1,5-a]pyrimidine-3-carboxamide]: the half-inhibitory concentration (IC50) in experiment [1] and in experiment [2] was less than 100 nM throughout.
Regarding `C[C@@H](C1CC1)N1Cc2cc(-c3ccn4nc(N)c(C(=O)NC5CC5)c4n3)cc(S(=O)(=O)C3CCCCC3)c2C1=O` [Example 138, 2-Amino-5-[7-(cyclohexanesulfonyl)-2-[(1S)-1-cyclopropylethyl]-1-oxo-2,3-dihydro-1H-isoindol-5-yl]-N-cyclopropylpyrazolo[1,5-a]pyrimidine-3-carboxamide], the concentration for half-maximal inhibition (IC50) in experiment [1] and in experiment [2] was less than 100 nM throughout.
For `CNS(=O)(=O)c1cc(-c2ccn3nc(N)c(C(=O)NC4CC4)c3n2)cc2c1C(=O)N([C@@H](C)C(F)(F)F)C2` [Example 139, 2-Amino-N-cyclopropyl-5-[7-(methylsulfamoyl)-1-oxo-2-[(2S)-1,1,1-trifluoropropan-2-yl]-2,3-dihydro-1H-isoindol-5-yl]pyrazolo[1,5-a]pyrimidine-3-carboxamide], the half-maximal inhibitory concentration (IC50) in experiment [1] and in experiment [2] was less than 100 nM each time.
Regarding `CNS(=O)(=O)c1cc(-c2ccn3nc(N)c(C(=O)Nc4cnn(C)c4)c3n2)cc2c1C(=O)N([C@@H](C)C1CC1)C2` [Example 140, 2-Amino-5-{2-[(1S)-1-cyclopropylethyl]-7-(methylsulfamoyl)-1-oxo-2,3-dihydro-1H-isoindol-5-yl}-N-(1-methyl-1H-pyrazol-4-yl)pyrazolo[1,5-a]pyrimidine-3-carboxamide], the half-inhibitory concentration (IC50) in experiment [1] and in experiment [2] was less than 100 nM throughout.

(Values after US20230024302A1, “2,3,5-TRISUBSTITUTED PYRAZOLO[1,5-A]PYRIMIDINE COMPOUNDS” (Arcus Biosciences, Inc., priority 2019, published 2023).)
